Reference: publication PMC12172621 (ACS chemical neuroscience, 2024)
“And” between values parts separate entries of the source, which are not always exact repeats. Equal entries are not always repeated. Where two headings read alike, the source gives them in different places.

What was measured:
in vitro = details: mouse
[1] = biological target: sigma-1 receptor (σ1R, Sigmar1) (Homo sapiens, UniProt Q99720); experiment: biochemical; assay type: binding
[2] = system: seeding activity of RML prions on recombinant bank vole PrP; assay type: biochemical; details: 2× the EC50 (79 μM)
[3] = cited from earlier work
[4] = system: PK-resistant PrP in Hrh1^0/0 cells
[5] = biological target: sigma-2 receptor (σ2R, Tmem97) (Homo sapiens, UniProt Q5BJF2); experiment: biochemical; assay type: binding
Chain of sigma-2 receptor (σ2R, Tmem97) (Q5BJF2 whole entry, species assumed): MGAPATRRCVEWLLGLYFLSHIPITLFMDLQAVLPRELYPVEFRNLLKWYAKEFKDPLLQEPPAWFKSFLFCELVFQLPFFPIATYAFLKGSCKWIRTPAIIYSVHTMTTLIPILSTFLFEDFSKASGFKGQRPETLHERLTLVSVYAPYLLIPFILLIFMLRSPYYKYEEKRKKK

[6] = system: PK-resistant PrP in Rosa26-targeted ScN2a cells; assay type: cell-based, mouse
[7] = system: PK-resistant PrP in Sigmar1 + Tmem97 KO cells; assay type: cell-based, mouse
[8] = system: PK-resistant PrP (PrP^Sc) in ScN2a-RML cells; assay type: cell-based, mouse; details: read-out: EC50, effective concentration for 50% reduction of PrP^Sc levels in ScN2a-RML cells
[9] = system: total PrP (PrP^C) in uninfected N2a cells; assay type: cell-based, mouse
[10] = system: cultured hippocampal neurons exposed to purified RML PrP^Sc; assay type: cell-based
[11] = system: PK-resistant PrP in N2a cells chronically infected with 22L prions; assay type: cell-based, mouse

Chain of sigma-1 receptor (σ1R, Sigmar1) (Q99720 whole entry, species assumed): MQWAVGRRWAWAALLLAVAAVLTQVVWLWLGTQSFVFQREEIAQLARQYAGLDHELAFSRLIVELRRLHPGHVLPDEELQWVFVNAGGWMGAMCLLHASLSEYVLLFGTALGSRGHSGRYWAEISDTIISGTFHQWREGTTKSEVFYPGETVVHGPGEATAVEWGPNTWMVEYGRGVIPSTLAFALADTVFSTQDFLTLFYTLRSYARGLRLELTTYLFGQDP

CC(C)=CCN1CC[C@]2(C)c3cc(O)ccc3C[C@H]1[C@H]2C [(+)-pentazocine]
CC50 (in vitro): > 50 µM

CN(C)CC1CCOC1(c1ccccc1)c1ccccc1 (stereo not drawn) [ANAVEX2–73, Blarcamesine]
Ki [1]: 0.442 µM | Selectivity for σ1R (σ1R/σ2R) [1]: σ1R (4.5 x) | TI, therapeutic index (LC50/EC50) (ScN2a-RML cells; mouse): >1.3 | Lag phase in RT-QuIC [2]: slight increase in the lag phase | Tolerability in phase II trials ([3]; Alzheimer’s and Parkinson’s diseases): well tolerated | Levels of PK-resistant PrP relative to DMSO-treated controls [4]: 25.7 ± 6.2% | Ki [5]: 2.03 µM | Levels of PK-resistant PrP relative to DMSO-treated controls [6]: 70.4 ± 1.1% and 42.6 ± 1.7% | CC50 (in vitro): > 50 µM | Levels of PK-resistant PrP relative to DMSO-treated controls ([7]; 39.5 μM): 57.9 ± 9.0%

CN(C)CCN(C)CCc1ccc(Cl)c(Cl)c1 [BD1047]
EC50 [8]: 19 µM | CC50 (ScN2a-RML cells): > 25 µM | Levels of total PrP compared to DMSO treatment ([9]; 19 μM): 94.9 ± 0.9% | Ki ([5]; read-out: Kiσ2R): 0.013 µM | Mean number of dendritic spines/μm [10]: 0.74 ± 0.02 spines/μm and 0.78 ± 0.04 spines/μm | [SRA]min, minimum concentration capable of preventing hippocampal spine retraction [10]: 0.5 µM

CN1CCN(CCc2ccc(Cl)c(Cl)c2)CC1 [BD1063]
Selectivity for σ1R (σ1R/σ2R) [1]: σ1R (45.7 x) | Ki ([1]; read-out: Kiσ1R): 0.0027 µM | EC50 [8]: 12.3 µM | Levels of PK-resistant PrP relative to DMSO treatment [11]: 63.3 ± 1.2% | CC50 (ScN2a-RML cells): > 50 µM | TI, therapeutic index (LC50/EC50) (ScN2a-RML cells): >4.1 | Levels of total PrP compared to DMSO treatment ([9]; 12.3 μM): 85.8 ± 4.4% | Levels of PK-resistant PrP relative to DMSO-treated controls [4]: 42.6 ± 6.7% | Ki ([5]; read-out: Kiσ2R): 0.123 µM | Levels of PK-resistant PrP relative to DMSO-treated controls [7]: 60.3 ± 4.0% | Mean number of dendritic spines/μm [10]: 0.69 ± 0.03 spines/μm and 0.63 ± 0.03 spines/μm | [SRA]min, minimum concentration capable of preventing hippocampal spine retraction [10]: 1 µM

OC(CCCN1CCN(c2ncc(F)cn2)CC1)c1ccc(F)cc1 (stereo not drawn) [BMY-14802]
CC50 (in vitro): > 50 µM

Cc1ccccc1NC(=N)Nc1ccccc1C [DTG, ditolylguanidine]
CC50 (in vitro): > 50 µM

COc1cccc2c1CCCC2CCCN1CCN(C2CCCCC2)CC1 (stereo not drawn) [PB-28]
EC50 [8]: 5.1 µM | CC50 (ScN2a-RML cells): 7.8 µM | Levels of total PrP compared to DMSO treatment [9]: 85.3 ± 3.4% | [SRA]min, minimum concentration capable of preventing hippocampal spine retraction [10]: 0.1 µM

CCCN1CCC=C(c2cc(-c3ccc(C)cc3)no2)C1 [PD 144418]
Selectivity for σ1R (σ1R/σ2R) [1]: σ1R (319.1 x) | Ki ([1]; read-out: Kiσ1R): 0.0011 µM | EC50 [8]: 5.2 µM | EC50 ([11]; read-out: EC50 against 22L prions): 12.6 µM | CC50 (ScN2a-RML cells): > 22 µM | TI, therapeutic index (LC50/EC50) (ScN2a-RML cells): >4.2 | Levels of total PrP compared to DMSO treatment [9]: 97.5 ± 4.8% | Ki ([5]; read-out: Kiσ2R): 0.351 µM | Levels of PK-resistant PrP relative to DMSO-treated controls [6]: 81.1 ± 5.0% | Levels of PK-resistant PrP relative to DMSO-treated controls [7]: 56.6 ± 5.8% | [SRA]min, minimum concentration capable of preventing hippocampal spine retraction [10]: 10 µM

COc1ccc(CCN2CCN(CCCc3ccccc3)CC2)cc1OC [SA 4503, Cutamesine]
EC50 [8]: 27.2 µM | CC50 (ScN2a-RML cells): > 50 µM | Tolerability in phase II trial ([3]; ischemic stroke): well tolerated | Ki ([5]; read-out: Kiσ2R): 0.0175 µM

CCCCc1oc2ccccc2c1C(=O)c1cc(I)c(OCCN(CC)CC)c(I)c1 [amiodarone]
Ki [5]: 0.171 µM

O=C(CCCN1CCC(O)(c2ccc(Cl)cc2)CC1)c1ccc(F)cc1 [haloperidol]
Levels of total PrP compared to DMSO treatment [9]: 92.0 ± 3.5% | Mean number of dendritic spines/μm [10]: 0.85 ± 0.03 spines/μm and 0.73 ± 0.04 spines/μm

C[C@@H]1CN(CCCn2c3ccccc3c3ccccc32)C[C@H](C)N1 [rimcazole]
Ki [5]: 0.0496 µM | CC50 (in vitro): 10 µM | Mean number of dendritic spines/μm [10]: 0.86 ± 0.02 spines/μm and 0.82 ± 0.02 spines/μm | [SRA]min, minimum concentration capable of preventing hippocampal spine retraction [10]: 0.5 µM
